Patent US11322228B2, “Structure based design of d-protein ligands” (Janssen Vaccines & Prevention B.V., priority 2015, dated 2022)
Where a SMILES comes first, the peptide text is derived from it. Bridges are numbered along the chain shown (N, C = ends). Where no end group is shown, it is not given here. [ ]: non-standard residue; d: D form. d2Nal = N[C@H](Cc1ccc2ccccc2c1)C(=O)O; dNle = CCCC[C@@H](N)C(=O)O

Columns and labels:
IL17A [1] = target: T1, IL17A (Homo sapiens, UniProt Q16552); experiment: ELISA competition assay against Centyrin WPW-His on IL17A; format: binding
T1 sequence (Q16552 24-155): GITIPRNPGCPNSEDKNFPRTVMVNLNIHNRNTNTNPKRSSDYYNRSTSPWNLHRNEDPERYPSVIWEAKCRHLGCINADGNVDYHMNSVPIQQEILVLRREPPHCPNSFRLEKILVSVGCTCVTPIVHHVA
From the text: (§1) In order to assess the potential binding of the D-Proteins to IL17A at the binding site of CNT06785, the D-Proteins were screened in an ELISA competition assay against a known competitor of antibody CNT06785, Centyrin WPW-His. To show the specific binding to the epitope, negative control antibody CAT2200 was taken along that binds to a different, non-overlapping epitope on IL17A. […] Upper graphs show competition with centyrin WPW, lower graphs—with antibody CAT2200 binding to a non-overlapping epitope. Response is plotted as a function of logarithm of concentration.

IL17A [2] = target: T1, IL17A; experiment: ELISA competition assay against negative control antibody CAT2200 (non-overlapping epitope) on IL17A; conditions: antibody binding a non-overlapping epitope on IL17A
From the text: as §1

Influenza hemagglutinin [3] = experiment: ELISA competition with head binding antibody CR11054 (non-overlapping epitope); conditions: non-overlapping epitope on HA
Influenza hemagglutinin [4] = experiment: ELISA assay for competition with designer protein HB80.4 (stem epitope); format: binding; conditions: for competition with HB80.4 (result in words): stem binding HB80.4, competition ELISA on HA

Compound	competition with centyrin WPW (result in words) (IL17A [1])	competition with CAT2200 (result in words) (IL17A [2])	competition with CR11054 (result in words) (Influenza hemagglutinin [3])	pIC50, competition with HB80.4 (Influenza hemagglutinin [4]; competition ELISA on HA)	IC50 (Influenza hemagglutinin [4]; competition ELISA on HA, read-out: IC50 given in brackets after pIC50, competition with HB80.4 (converted)) [µM]	competition with HB80.4 (result in words) (Influenza hemagglutinin [4])
H-rscidtipksrctafqckhsmkyrlsfcrktcGtc-OH [DP141050, reference compound]	lack of activity	lack of activity	lack of activity			
rfcpsibkkcrrdsdcpG!cickGnGycG (RFCPSIXKKCRRDSDCPGXCICKGNGYCG; not fully specified (some residues); printed as rfcpsibkkcrrdsdcpG!cickGnGycG; cysteine pairing not given here) [DP142093, optimized HA hit, D-protein on scaffold 2LJS]			no competition	4.1	88	clear S-curve
racprilkkcrrdsdcpGecickGnGycG (RACPRILKKCRRDSDCPGECICKGNGYCG) [DP141753, wild-type scaffold 2LJS as D-protein, negative control, reference compound]						no competition until the highest concentration
H-rscqatepkyfctaflckhlmkarlsycrktcGtc-OH (H-[dR][dS][dC][dQ][dA][dT][dE][dP][dK][dY][dF][dC][dT][dA][dF][dL][dC][dK][dH][dL][dM][dK][dA][dR][dL][dS][dY][dC][dR][dK][dT][dC]G[dT][dC]-OH; cysteine pairing not given here) [DP141065]	lack of activity	lack of activity				
CCCC[C@H]1NC(=O)[C@@H](CCCCN)NC(=O)[C@@H](CCSC)NC(=O)[C@@H](CC(C)C)NC(=O)[C@@H](Cc2c[nH]cn2)NC(=O)[C@@H](CCCCN)NC(=O)[C@H]2CSSC[C@H]3NC(=O)[C@@H]([C@H](C)O)NC(=O)[C@@H](CCCCN)NC(=O)[C@@H](CCCNC(=N)N)NC(=O)[C@@H](CSSC[C@@H](NC(=O)[C@@H](Cc4ccccc4)NC(=O)[C@@H](CC(C)C)NC(=O)[C@@H](CCCCN)NC(=O)[C@H]4CCCN4C(=O)[C@@H](Cc4ccccc4)NC(=O)[C@@H]([C@H](C)O)NC(=O)[C@@H](C)NC(=O)[C@@H](CCC(N)=O)NC(=O)[C@H](NC(=O)[C@@H](CO)NC(=O)[C@H](N)CCCNC(=N)N)CSSC[C@H](C(=O)O)NC(=O)[C@@H]([C@H](C)O)NC(=O)CNC3=O)C(=O)N[C@H]([C@H](C)O)C(=O)N[C@H](C)C(=O)N[C@H](Cc3ccccc3)C(=O)N[C@H](CC(C)C)C(=O)N2)NC(=O)[C@@H](Cc2ccc3ccccc3c2)NC(=O)[C@@H](CO)NC(=O)[C@@H](CC(C)C)NC(=O)[C@@H](CCCNC(=N)N)NC1=O [DP142137, H-rscqatfpklfctaflckhlmkxrls<crktcGtc-OH] (H-[dR][dS][dC][dQ][dA][dT][dF][dP][dK][dL][dF][dC][dT][dA][dF][dL][dC][dK][dH][dL][dM][dK][dNle][dR][dL][dS][d2Nal][dC][dR][dK][dT][dC]G[dT][dC]-OH; disulfide 3-35, 12-28, 17-32)	clear binding curve	lack of activity				
H-rsciatepksfctaflckhlmkarlsycrktcGtc-OH (H-[dR][dS][dC][dI][dA][dT][dE][dP][dK][dS][dF][dC][dT][dA][dF][dL][dC][dK][dH][dL][dM][dK][dA][dR][dL][dS][dY][dC][dR][dK][dT][dC]G[dT][dC]-OH; cysteine pairing not given here) [DP141063]	lack of activity	lack of activity				
